According to patent publication US12661410B2, “Compounds for targeted degradation of RET” (C4 Therapeutics, Inc., priority 2020, dated 2026):
Changes are numbered by the printed parent chain. Where two headings read alike, the source gives them in different places.

What was measured:
RET(KD: 658-1114 G810R) = target: T1, RET(KD: 658-1114 G810R) (Homo sapiens, UniProt P07949, G810R); assay: HiBiT-Degradation, RET G810R degradation assay (Nano-Glo HiBiT Lytic), 293T.165 cells; type: cell-based; conditions: for Emax / DC50: 6.0 hours; for Emax: % remaining protein, read-out: 293T.165 RET(KD: 658-1114 G810R) 6.0 hours (Emax); for DC50: read-out: 293T.165 RET(KD: 658-1114 G810R) 6.0 hours (DC50)
T1 construct: 658-1114; expressed in transfected cells; host or cells: 293T.165 (293T cells, generated in-house)
T1 sequence (P07949 658-1114 G810R): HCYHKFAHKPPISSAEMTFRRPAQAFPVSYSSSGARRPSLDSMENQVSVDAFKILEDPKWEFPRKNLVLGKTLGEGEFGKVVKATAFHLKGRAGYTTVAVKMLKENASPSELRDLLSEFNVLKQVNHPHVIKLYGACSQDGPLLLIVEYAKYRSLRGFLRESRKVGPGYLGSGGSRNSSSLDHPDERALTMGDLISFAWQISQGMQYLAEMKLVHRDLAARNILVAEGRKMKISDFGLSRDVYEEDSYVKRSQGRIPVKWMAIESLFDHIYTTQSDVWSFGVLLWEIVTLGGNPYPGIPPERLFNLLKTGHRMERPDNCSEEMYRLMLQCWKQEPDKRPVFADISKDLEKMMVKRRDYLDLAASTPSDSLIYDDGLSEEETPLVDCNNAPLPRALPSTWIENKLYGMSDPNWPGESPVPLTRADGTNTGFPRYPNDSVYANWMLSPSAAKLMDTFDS
Method in brief: (§1)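 HEK293T lines stably expressing HiBiT-tagged RET kinase domain (WT: 293T.144; G810R: 293T.165) were treated with degraders for 6 h in duplicate, 11-point half-log series from 10 μM top dose. Lysis with Nano-Glo HiBiT Lytic reagent, luminescence read; DC50 and Emax (% remaining protein) derived from dose-response curves.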

RET (658-1114) = target: T2, RET (658-1114) (Homo sapiens, UniProt P07949); assay: HiBiT-Degradation, RET wild-type degradation assay (Nano-Glo HiBiT Lytic), 293T.144 cells; type: cell-based; conditions: for DC50 / Emax: 6.0 hours; for DC50: read-out: 293T.144 RET (658-1114) 6.0 hours (DC50); for Emax: read-out: 293T.144 RET (658-1114) 6.0 hours (Emax)
T2 construct: 658-1114; expressed in transfected cells; host or cells: 293T.144 (293T cells, generated in-house)
T2 sequence (P07949 658-1114): T1 sequence (P07949 658-1114 G810R) with R153G
Method in brief: as §1

[1] = half-maximal degradation concentration

Emax (RET(KD: 658-1114 G810R)) | DC50 (RET(KD: 658-1114 G810R); [1]) | 293T.165 RET(KD: 658-1114 G810R) 6.0 hours (Emax) (RET(KD: 658-1114 G810R); HiBiT-Degradation) | 293T.165 RET(KD: 658-1114 G810R) 6.0 hours (IP) [nM] (RET(KD: 658-1114 G810R); HiBiT-Degradation) | DC50 (RET(KD: 658-1114 G810R); HiBiT-Degradation) | 293T.144 RET (658-1114) 6.0 hours (IP) [nM] (RET (658-1114); HiBiT-Degradation) | DC50 (RET (658-1114); HiBiT-Degradation) | Emax (RET (658-1114); HiBiT-Degradation) | 293T.165 RET(KD: 658-1114 G810R) 6.0 hours (IP) [nM] (RET(KD: 658-1114 G810R)) | 293T.144 RET (658-1114) 6.0 hours (IP) [nM] (RET (658-1114)) | Emax (RET (658-1114); % remaining protein) | DC50 (RET (658-1114); [1]) | Compound
< 30% | < 100 nM | ++++ (< 30% = ++++) | +++ (<100 nM = +++) | < 100 nM | ++++ (< 50 nM = ++++) | < 50 nM | < 30% |  |  |  |  | CC1(NC(=O)Cc2ccccc2)CCN(c2ccc(-c3cc(-c4ccc(N5CCN(C(=O)CN6CCC(c7ccc(NC8CCC(=O)NC8=O)cc7F)CC6)CC5)cc4)cn4ncc(C#N)c34)cn2)CC1 (centres unmarked) [Compound 23, N-(1-(5-(3-Cyano-6-(4-(4-(2-(4-(4-((2,6-dioxopiperidin-3-yl)amino)-2-fluorophenyl)piperidin-1-yl)acetyl)piperazin-1-yl)phenyl)pyrazolo[1,5-a]pyridin-4-yl)pyridin-2-yl)-4-methylpiperidin-4-yl)-2-phenylacetamide]
< 30% | < 50 nM |  |  |  |  |  |  | ++++ (<50 nM = ++++) | ++++ (<50 nM = ++++) | < 30% | < 50 nM | CCC1(C(=O)NC2CCC2)CCN(c2ccc(-c3nc(-c4cnn([C@H]5CC[C@H](N6CCC(c7ccc(N[C@@H]8CCC(=O)NC8=O)cc7)CC6)CC5)c4)cn4ncc(C#N)c34)cn2)CC1 (single isomer, unassigned) [Compound 128]
< 30% | < 50 nM |  |  |  |  |  |  | ++++ (<50 nM = ++++) | ++++ (<50 nM = ++++) | < 30% | < 50 nM | CCC1(C(=O)NC(C)(C)C)CCN(c2ccc(-c3nc(-c4cnn([C@H]5CC[C@H](N6CCC(c7ccc(N[C@H]8CCC(=O)NC8=O)cc7F)CC6)CC5)c4)cn4ncc(C#N)c34)cn2)CC1 (single isomer, unassigned) [Compound 145]
< 30% | < 50 nM |  |  |  |  |  |  | ++++ (<50 nM = ++++) | ++++ (<50 nM = ++++) | < 30% | < 50 nM | CCC1(C(=O)NC(C)C)CCN(c2ccc(-c3cc(-c4cnn([C@H]5CC[C@H](N6CCC(c7ccc(N[C@H]8CCC(=O)NC8=O)cc7F)CC6)CC5)c4)cn4ncc(C#N)c34)cn2)CC1 (single isomer, unassigned) [Compound 194]

Compound | Emax (RET(KD: 658-1114 G810R)) | DC50 (RET(KD: 658-1114 G810R); [1]) | 293T.165 RET(KD: 658-1114 G810R) 6.0 hours (Emax) (RET(KD: 658-1114 G810R); HiBiT-Degradation) | 293T.165 RET(KD: 658-1114 G810R) 6.0 hours (IP) [nM] (RET(KD: 658-1114 G810R); HiBiT-Degradation) | DC50 (RET(KD: 658-1114 G810R); HiBiT-Degradation) | 293T.144 RET (658-1114) 6.0 hours (IP) [nM] (RET (658-1114); HiBiT-Degradation) | DC50 (RET (658-1114); HiBiT-Degradation) | Emax (RET (658-1114); HiBiT-Degradation) | 293T.165 RET(KD: 658-1114 G810R) 6.0 hours (IP) [nM] (RET(KD: 658-1114 G810R)) | 293T.144 RET (658-1114) 6.0 hours (IP) [nM] (RET (658-1114)) | Emax (RET (658-1114); % remaining protein) | DC50 (RET (658-1114); [1])
CC(C)Oc1ccc(CN2[C@@H]3COC[C@H]2CN(c2ccc(-c4nc(-c5cnn([C@H]6CC[C@H](N7CCN(c8c(F)cc(NC9CCC(=O)NC9=O)cc8F)CC7)CC6)c5)cn5ncc(C#N)c45)cn2)C3)cn1 (mixture of isomers) [Compound 213, 6-[1-[4-[4-[4-[(2,6-dioxo-3-piperidyl)amino]-2,6-difluoro-phenyl]piperazin-1-yl]cyclohexyl]pyrazol-4-yl]-4-[6-[rac-(1R,5S)-9-[(6-isopropoxy-3-pyridyl)methyl]-3-oxa-7,9-diazabicyclo[3.3.1]nonan-7-yl]-3-pyridyl]pyrazolo[1,5-a]pyrazine-3-carbonitrile] | < 30% | < 100 nM |  |  |  |  |  |  | +++ (<100 nM = +++) | ++++ (<50 nM = ++++) | < 30% | < 50 nM
